According to US20100292231A1, “Indazole Compounds for Treating Inflammatory Disorders, Demyelinating Disorders and Cancers” (priority 2007, published 2010):

How the values were obtained:
[1] = biological target: T1, FLT3 (Homo sapiens, UniProt P36888); experiment: SelectScreen FLT3 kinase dose response assay; assay type: biochemical; conditions: ATP 100 micromolar; for inhibition at 1 µM: read-out: FLT3 Inhibition E1000 (percent inhibition at 1000 nMolar); for EC50: dose response, 4 parameter Hill equation, read-out: FLT3 Inhibition EC50
T1 construct: purchased Invitrogen (SelectScreen platform)
T1 sequence (P36888 27-993): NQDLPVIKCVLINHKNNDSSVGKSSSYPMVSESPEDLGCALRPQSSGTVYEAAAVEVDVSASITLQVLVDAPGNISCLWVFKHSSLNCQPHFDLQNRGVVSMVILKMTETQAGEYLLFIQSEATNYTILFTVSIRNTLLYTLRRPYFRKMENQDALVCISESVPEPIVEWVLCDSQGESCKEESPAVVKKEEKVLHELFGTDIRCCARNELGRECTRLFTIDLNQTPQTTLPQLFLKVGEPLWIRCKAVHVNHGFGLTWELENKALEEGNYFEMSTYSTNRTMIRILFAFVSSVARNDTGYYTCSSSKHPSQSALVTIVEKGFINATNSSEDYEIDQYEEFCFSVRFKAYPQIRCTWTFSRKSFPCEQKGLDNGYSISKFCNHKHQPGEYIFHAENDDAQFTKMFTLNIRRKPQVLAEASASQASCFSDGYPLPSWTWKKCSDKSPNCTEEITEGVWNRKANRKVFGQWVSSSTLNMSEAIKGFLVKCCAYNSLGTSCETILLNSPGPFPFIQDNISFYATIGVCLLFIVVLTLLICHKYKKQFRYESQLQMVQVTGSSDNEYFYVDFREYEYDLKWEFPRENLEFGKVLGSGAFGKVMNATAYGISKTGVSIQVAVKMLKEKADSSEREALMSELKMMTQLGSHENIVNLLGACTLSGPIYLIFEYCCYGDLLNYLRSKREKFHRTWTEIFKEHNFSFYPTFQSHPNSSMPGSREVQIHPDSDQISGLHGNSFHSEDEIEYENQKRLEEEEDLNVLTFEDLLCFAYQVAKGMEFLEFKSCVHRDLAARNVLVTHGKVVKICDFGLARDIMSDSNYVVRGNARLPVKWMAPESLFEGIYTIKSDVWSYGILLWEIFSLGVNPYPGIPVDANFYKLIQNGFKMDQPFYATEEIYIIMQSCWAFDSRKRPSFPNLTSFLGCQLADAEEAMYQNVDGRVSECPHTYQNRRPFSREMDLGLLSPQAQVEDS
Experimental: The terms “IC50” and “EC50” are used interchangeably. As used herein, “EC50” refers to nMolar concentration at median percent inhibition determined by dose respose (DR) assay. As used herein, the term “E1000” refers to percent inhibition at 1000 nMolar determined by assay.
Testing of the compounds described in this invention was carried out using the SelectScreen™ platform from Invitrogen, Inc. (Carlsbad. Calif., USA) and the details of its performance are readily viewed via the web by linking to: http://www.invitrogen.com/downloads/SelectScrn_Brochure.pdf.
Briefly, the approach is based on treating each specific kinase with a unique substrate and optical reporter system in the presence of ATP at 100 micromolar. In controls, the substrate is phosphorylated and a baseline optimal response is recorded.
The compounds were then re-tested by adding graded amounts of putative inhibitor which were added in 5 separate increments to generate a dose response curve. The latter is obtained by fitting to a 4 parameter Hill equation, a sigmoid saturation equation.
For the compounds of this invention, the experimental conditions were as follows. The 2× FLT3/Tyr 02 peptide mixture was prepared in 50 mM HEPES pH 7.5, 0.01 BRIJ-35, 10 mM MgCl2, 1 mM EGTA. The final 10 uL kinase reaction consists of 0.6-76.0 ng FLT3 and 2 uM Tyr 02 peptide in 50 mM HEPES pH 7.5, 0.01% BRIJ-35, 10 mM MgCl2, 1 mM EGTA. After 1 hour kinase reaction incubation, 5 uL of a 1:64 dilution of development reagent A was added.

[2] = test system: MdaMb231 cells; experiment: BrdU cell proliferation assay; assay type: cell-based; conditions: for concentration at which cell proliferation was inhibited (BrdU): MdaMb231 cells, 24 hour treatment; for BrdU (Inhibition of cell proliferation): Table 5 summary, concentration inhibiting proliferation
Experimental: Representative compounds of the present invention were evaluated in a BrdU assay to determine their effect on the cell proliferation of MdaMb231 cells.
The effect of the inventive compounds on cell proliferation was analyzed by detecting 5-Bromo-2′-deoxy-uridine (BrdU) incorporation after 24 hour treatment with the test compounds. The cell proliferation ELISA BrdU kit (Roche™ cat. No. 11 647 229 001) was used according to manufacturer's protocol. Cells were plated at 10.000 cells/well. The next day compounds were added in concentration range of 2.5, 5, 10 and 20 μM.
After 24 hours, 12 μl/well BrdU labelling solution was added and cells were incubated for 6 hours at 37° C./5% CO2 before labeling solution was removed. Cells were fixed with 200 μl FixDenat™ solution for 30 minutes. After removal of fixative 100 μl BrdU-peroxidase working solution was added and cells were incubated for 90 minutes. Cells were subsequently washed three times. 100 μl substrate solution was added and after 30 minutes the absorbance was read at 370 nm.

[3] = biological target: T2, CSF-1R (Homo sapiens, UniProt P07333); experiment: Kinase EC50 (10 pt curve or estimate, ATP Kmapp); assay type: biochemical; conditions: from 10 pt curve or estimate based on 1 μm inhibition assay at ATP Kmapp
T2 construct: purchased Invitrogen (SelectScreen platform)

[4] = biological target: T1, FLT3; experiment: Kinase EC50 (10 pt curve or estimate, ATP Kmapp); assay type: biochemical; conditions: from 10 pt curve or estimate based on 1 μm inhibition assay at ATP Kmapp
[5] = biological target: T3, MLCK (Homo sapiens, UniProt Q9H1R3); experiment: Kinase EC50 (10 pt curve or estimate, ATP Kmapp); assay type: biochemical; conditions: from 10 pt curve or estimate based on 1 μm inhibition assay at ATP Kmapp
T3 construct: purchased Invitrogen (SelectScreen platform)

[6] = test system: MdaMb231 cells; experiment: in vitro scratch (cell migration) assay; assay type: cell-based; conditions: for concentration resulting in inhibition of cell motility / migration: Mda231 cells, after 48 hrs; for Migration: Table 5 summary, concentration inhibiting migration
Experimental: The in vitro scratch assay is used to determine the ability of cancer cells to migrate into and close an open wound; such migration is considered to have a role in metastasis of tumor cells.
Cells were plated in gelatin-coated 6-well plates and grown until a confluent monolayer was formed. When confluent, a straight scratch was made with a p200 pipette tip, cells were washed and compounds were added at concentrations of 1 μM, 2.5 μM, 5 μM, 10 μM and 20 μM. Images were taken at specific reference points at 0, 24 and 48 hours with Zeiss Axiovert 40 CFL microscope and Axiocam MRc5 camera and the ability of the cells to move in and close the wound was measured.
The data is presented in FIG. 1, which is a bar plot of percent cell migration into the “wound” in each sample (measured with respect to the control) and FIG. 2, which is a plot of percent wound confluence as a function of time (measured with respect to the control).

T2 sequence (P07333 20-972): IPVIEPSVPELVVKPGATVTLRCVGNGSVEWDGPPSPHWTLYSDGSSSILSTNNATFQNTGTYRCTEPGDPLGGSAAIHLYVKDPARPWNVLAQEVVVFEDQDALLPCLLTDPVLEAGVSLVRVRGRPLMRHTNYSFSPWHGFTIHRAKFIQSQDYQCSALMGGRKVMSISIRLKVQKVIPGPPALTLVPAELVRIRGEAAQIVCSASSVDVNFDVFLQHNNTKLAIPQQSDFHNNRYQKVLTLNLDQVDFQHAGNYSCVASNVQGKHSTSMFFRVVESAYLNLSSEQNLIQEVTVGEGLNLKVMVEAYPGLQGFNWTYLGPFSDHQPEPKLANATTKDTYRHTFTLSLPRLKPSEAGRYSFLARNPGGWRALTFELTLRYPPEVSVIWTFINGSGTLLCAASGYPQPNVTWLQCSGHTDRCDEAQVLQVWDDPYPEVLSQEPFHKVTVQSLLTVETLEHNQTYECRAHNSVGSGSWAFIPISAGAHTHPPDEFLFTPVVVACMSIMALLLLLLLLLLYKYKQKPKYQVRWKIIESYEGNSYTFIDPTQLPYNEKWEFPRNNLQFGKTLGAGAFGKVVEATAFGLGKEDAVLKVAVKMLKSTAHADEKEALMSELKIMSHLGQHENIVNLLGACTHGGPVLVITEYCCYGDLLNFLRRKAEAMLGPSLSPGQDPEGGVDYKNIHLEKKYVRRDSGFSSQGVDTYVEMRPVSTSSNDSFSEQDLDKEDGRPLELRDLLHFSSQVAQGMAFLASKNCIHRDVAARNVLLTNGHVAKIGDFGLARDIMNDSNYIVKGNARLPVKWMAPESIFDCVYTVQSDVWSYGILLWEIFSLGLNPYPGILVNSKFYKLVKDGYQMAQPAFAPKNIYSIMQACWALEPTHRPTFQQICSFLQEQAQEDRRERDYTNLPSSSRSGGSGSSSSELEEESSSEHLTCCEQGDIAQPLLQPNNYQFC

Row | Compound | inhibition at 1 µM ([1]; 1000 nMolar compound) [%] | EC50 [1] [nM] | concentration at which cell proliferation was inhibited (BrdU) [2] [µM] | BrdU (Inhibition of cell proliferation) [2] [μm] | EC50 [3] [nM] | EC50 [4] [nM] | EC50 [5] [nM] | concentration resulting in inhibition of cell motility / migration [6] [µM] | Migration [6] [μm] | FLT3 Inhibition E1000 (percent inhibition at 1000 nMolar) ([1]; 1000 nMolar compound) [%]
1 | CN(C)CCCCCNc1ccc2ncn3c4ccc5[nH]ncc5c4c(=O)c1c23 [(III)] | 100 | 4 | – | – | – | – | – | – | – | –
2 | CN(C)c1ccc2ncn3c4ccc5[nH]ncc5c4c(=O)c1c23 [(IX)] | 98 | 9 | – | – | – | – | – | – | – | –
3 | CCN(CC)c1ccc2ncn3c4ccc5[nH]ncc5c4c(=O)c1c23 [(VI)] | 100 | 5 | – | – | – | – | – | – | – | –
4 | CNc1ccc2ncn3c4ccc5[nH]ncc5c4c(=O)c1c23 [(VII)] | 99 | 5 | – | – | – | – | – | – | – | –
5 | CCN(CC)CCNc1ccc2ncn3c4ccc5[nH]ncc5c4c(=O)c1c23 [(VIII)] | 87 | 69 | – | – | – | – | – | – | – | –
6 | O=c1c2c(NCCCN3CCOCC3)ccc3ncn(c4ccc5[nH]ncc5c14)c32 [(X)] | 98 | 11 | 20 | 20 | 280 | 11 | 52 | 5 | 5 | –
7 | CN(C)CCNc1ccc2ncn3c4ccc5[nH]ncc5c4c(=O)c1c23 [(XII)] | 98 | 11 | 2.5 | 2.5 | 360 | 5 | 18 | 5 | >5 | –
8 | CC(CCN1CCOCC1)Nc1ccc2ncn3c4ccc5[nH]ncc5c4c(=O)c1c23 (centres unmarked) [(XVI)] | 99 | – | 20 | 5 | 245 | 9 | 53 | 5 | 1 | 98
9 | CN1CCN(CCCNc2ccc3ncn4c5ccc6[nH]ncc6c5c(=O)c2c34)CC1 [(XVII)] | 99 | 8 | – | >20 | 950 | 15 | 9 | 5 | 5 | –
10 | CN(C)CCCNc1ccc2ncn3c4ccc5[nH]ncc5c4c(=O)c1c23 [Compound (IV)] | 98 | 14 | 2.5 | 2.5 | 200 | 14 | 21 | 5 | 1 | –
11 | O=c1c2c(NCCN3CCOCC3)ccc3ncn(c4ccc5[nH]ncc5c14)c32 [Compound (V)] | 95 | 30 | – | – | – | – | – | – | – | –
12 | CCN(CC)CCCNc1ccc2ncn3c4ccc5[nH]ncc5c4c(=O)c1c23 [Compound (XV)] | 99 | 11 | 20 | – | 490 | 11 | 8 | 1 | 1 | –
13 | CCN(CC)CCNc1ccc2ncn3c4ccc(O)cc4c(=O)c1c23 [Symadex, 5-(2-(diethylamino)ethylamino)-8-hydroxy-6H-imidazo[4,5,1-de]acridin-6-one, reference compound] | 96 | 24 | – | – | 430 | 40 | 95 | 10 | 10 | –
